According to patent US20080269510A1, “New alpha-glucosidase inhibitors and antibacterial compounds from Myrtus communis L” (priority 2005, published 2008):

How the values were obtained:
[1] = tested on: Salmonella typhi; test: Antibacterial screening, agar well diffusion; assay type: cell-based; conditions: for Inhibition zone, ST (Salmonella typhi): 100 μL of 3 mg/3 ml DMSO sample per 6-mm well, 37° C., 24 h
[2] = tested on: Staphylococcus aureus; test: Antibacterial screening, agar well diffusion; assay type: cell-based; conditions: for Inhibition zone, SA (Staphylococcus aureus): 100 μL of 3 mg/3 ml DMSO sample per 6-mm well, 37° C., 24 h
From the text: (§1) As a negative control, DMSO was used.

[3] = tested on: Bacillus subtilis; test: Antibacterial screening, agar well diffusion; assay type: cell-based; conditions: 100 μL of 3 mg/3 ml DMSO sample per 6-mm well, 37° C., 24 h
From the text: as §1

[4] = tested on: Escherichia coli; test: Antibacterial screening, agar well diffusion; assay type: cell-based; conditions: 100 μL of 3 mg/3 ml DMSO sample per 6-mm well, 37° C., 24 h
From the text: as §1

[5] = tested on: Pseudomonas aeruginosa; test: Antibacterial screening, agar well diffusion; assay type: cell-based; conditions: for Inhibition zone, PA (Pseudomonas aeruginosa): 100 μL of 3 mg/3 ml DMSO sample per 6-mm well, 37° C., 24 h
From the text: as §1

[6] = molecular target: α-Glucosidase (E.C.3.2.1.20); test: α-Glucosidase enzyme inhibition assay (PNP-G substrate, spectrophotometric); assay type: biochemical; conditions: for IC50: pH 6.9, 37° C., 0.7 mM PNP-G, 500 m units/mL enzyme, read-out: α-glucosidase inhibitory activity IC50; for α-glucosidase inhibition (in words): compared with standards acarbose and deoxynojirimycin
Procedure: α-Glucosidase (E.C.3.2.1.20) enzyme inhibition assay has been performed according to the slightly modified method of Matsui et al., (Matsui T., Yoshimoto C., Osajima K., Oki T., and Osajima Y., Biosci. Biotech. Biochem., 1996, 60, 2019-2022). α-Glucosidase (E.C.3.2.1.20) from Saccharomyces species, purchased commercially (Wako 076-02841; Wako Pure Chemical Industries Ltd., 1-2 Doshomachi 3-Chome, Chuo-ku, Osaka 540-8605, Japan). The enzyme inhibition was measured spectrophotometrically at pH 6.9 and at 37° C. using 0.7 mM p-nitrophenyl α-D glucopyranoside (PNP-G) as a substrate and 500 m units/mL enzyme, in 50 mM sodium phosphate buffer containing 100 mM NaCl. […] The increment in absorption at 400 nm, due to the hydrolysis of PNP-G by α-glucosidase, was monitored continuously on microplate spectrophotometer (Spectra Max Molecular Devices, USA).

[7] = tested on: Shigella flexneri; test: Antibacterial screening, agar well diffusion; conditions: 100 μL of 3 mg/3 ml DMSO sample per 6-mm well, 37° C., 24 h
[8] = autoxidation and FeCl3- and EDTA-mediated oxidation of linoleic acid; cited from earlier work
[9] = tested on: multidrug-resistant (MDR) clinically relevant bacteria; conditions: cited from earlier work

Row | Compound | Inhibition zone, ST (Salmonella typhi) [1] | antibacterial activity against Staphylococcus aureus (in words) [2] | Inhibition zone, BS (Bacillus subtilis) [3] | Inhibition zone, EC (Escherichia coli) [4] | Inhibition zone, PA (Pseudomonas aeruginosa) [5] | IC50 [6] | Inhibition zone, SF (Shigella flexneri) [7] | α-glucosidase inhibition (in words) [6] | activity against Salmonella typhi (in words) [1] | Inhibition zone, SA (Staphylococcus aureus) [2] | activity against Pseudomonas aeruginosa (in words) [5] | antioxidant properties (in words) [8] | antibacterial activity against MDR bacteria (in words) [9]
1 | CC(C)C(=O)c1c(O)c2c(c3c1OC1=C(C(=O)C(C)(C)C(=O)C1(C)C)[C@@H]3C(C)C)OC1=C(C(=O)C(C)(C)C(=O)C1(C)C)[C@@H]2C(C)C [Compound 2, Myrtucommulone-E] | 17 mm | significant antibacterial activity | 15 mm | 10 mm | 13 mm | 46.6 µM | 10 mm | – | – | – | – | – | –
2 | CC(C)C(=O)c1c(O)c(C(C2=C(O)C(C)(C)C(=O)C(C)(C)C2=O)C(C)C)c(O)c2c1OC1=C(C(=O)C(C)(C)C(=O)C1(C)C)C2C(C)C (centres unmarked) [Compound 3, Myrtucommulone-C] | – | – | – | – | – | 35.4 ± 1.15 µM | – | highest activity | – | – | – | – | –
3 | CC(C)C(=O)c1c(O)cc(O)c2c1OC1=C(C(=O)C(C)(C)C(=O)C1(C)C)C2C(C)C (centres unmarked) [Compound 4, Myrtucommulone-B] | – | – | – | – | – | 40 ± 1 µM | – | strong inhibition | – | – | – | – | –
4 | CC[C@H](CC[C@@H](C)[C@H]1CC[C@H]2[C@@H]3CC=C4C[C@@H](O)CC[C@]4(C)[C@H]3CC[C@]12C)C(C)C [Compound 7, β-sitosterol] | 18 mm | – | 12 mm | – | 16 mm | – | – | – | significant activity | 15 mm | significant activity | – | –
5 | CC(=O)c1c(O)c(C)c(O)c2c1OC1=CC(=O)C(C(C)=O)C(=O)C12C (centres unmarked) [Compound 9, usnic acid] | 17 mm | – | 16 mm | 11 mm | 17 mm | – | 15 mm | – | – | 15 mm | – | – | –
6 | C[C@H]1[C@H](C)CC[C@]2(C(=O)O)CC[C@]3(C)C(=CC[C@@H]4[C@@]5(C)C[C@@H](O)[C@H](O)C(C)(C)[C@@H]5CC[C@]43C)[C@H]12 [Compound 11, corosolic acid] | 17 mm | – | 15 mm | – | 17 mm | – | 15 mm | – | significant activity | – | significant activity | – | –
7 | CC1(C)CC[C@]2(C(=O)O)CC[C@]3(C)C(=CC[C@@H]4[C@@]5(C)C[C@@H](O)[C@H](O)[C@@](C)(CO)[C@@H]5CC[C@]43C)[C@@H]2C1 [Compound 12, arjunolic acid] | 16 mm | – | 15 mm | 9 mm | 12 mm | – | 13 mm | – | significant activity | 15 mm | significant activity | – | –
8 | CC1(C)CC[C@]2(CO)CC[C@]3(C)C(=CC[C@@H]4[C@@]5(C)CC[C@H](O)C(C)(C)[C@@H]5CC[C@]43C)[C@@H]2C1 [Compound 13, erythrodiol] | 19 mm | – | 17 mm | 16 mm | 12 mm | – | – | – | significant activity | 11 mm | significant activity | – | –
9 | CC1(C)CC[C@]2(C(=O)O)CC[C@]3(C)C(=CC[C@@H]4[C@@]5(C)CC[C@H](O)C(C)(C)[C@@H]5CC[C@]43C)[C@@H]2C1 [Compound 14, oleanolic acid] | 16 mm | – | 15 mm | – | 16 mm | – | 10 mm | – | significant activity | – | significant activity | – | –
10 | C=C(C)[C@@H]1CC[C@]2(CO)CC[C@]3(C)[C@H](CC[C@@H]4[C@@]5(C)CC[C@H](O)C(C)(C)[C@@H]5CC[C@]43C)[C@@H]12 [Compound 15, betulin] | 16 mm | – | – | – | 18 mm | – | 15 mm | – | significant activity | – | significant activity | – | –
11 | C[C@@H](O)[C@H]1C(=O)N2C(C(=O)O)=C(SCCN=CN)C[C@H]12 [Imipenem, reference compound] | 25 mm | – | 33 mm | 30 mm | 24 mm | – | 27 mm | – | – | 33 mm | – | – | –
12 | CC(C)C(=O)c1c(O)c([C@H](C2=C(O)C(C)(C)C(=O)C(C)(C)C2=O)C(C)C)c(O)c([C@H](C2=C(O)C(C)(C)C(=O)C(C)(C)C2=O)C(C)C)c1O [Myrtucommulone-A] | – | – | – | – | – | – | – | – | – | – | – | powerful antioxidant properties | significant antibacterial activity
13 | Cc1c(O)c(C(=O)C(C)C)c(O)c(C(C2=C(O)C(C)(C)C(=O)C(C)(C)C2=O)C(C)C)c1O (centres unmarked) [semimyrtucommulone] | – | – | – | – | – | – | – | – | – | – | – | powerful antioxidant properties | less active
14 | Myrtucommulone-D [Compound 1] | 15 mm | significant antibacterial activity | 15 mm | – | – | 84.3 ± 3 µM | 12 mm | – | – | 24 mm | – | – | –
